“And” between values parts separate entries of the source, which are not always exact repeats. Equal entries are not always repeated. Where two headings read alike, the source gives them in different places. Where a SMILES comes first, the peptide text is derived from it. [ ]: non-standard residue; d: D form. The star is where a group is joined. Dolaproine = CO[C@@H]([C@@H]1CCCN1)[C@@H](C)C(=O)O; Dil = CC[C@H](C)[C@H](NC)[C@@H](CC(=O)O)OC; X1 = C[C@@H](N*)[C@@H](O)c1ccccc1; NMeV = CN[C@H](C(=O)O)C(C)C
Tests used:
HeLa cells = experiment: In vitro cell viability (Cell Titre Glo, 96 h), HeLa; type: cell-based; details: ALPP/ALPPL2 negative cell-line, Table 24
Method: HeLa cells, CCL-2 provided by the American Type Culture Collection (ATCC). Grown in EMEM+10% FCS
(§1) In vitro cell viability assays for cancer cells treated with anti ALPP/ALPPL2 drug conjugates Cells were seeded in the appropriate complete growth media, as described above, into white, clear bottom 96 well plates (Costar) and incubated at 37° C., 5% C02 for 24 hours. On the following day, dilution series were set up for each test agent at ×10 working stocks. The dose response X10 stock was e.g.: 10000, 5000, 1000, 500, 100, 50, 10, 5, 1, 0.5 nM etc. 10 μL of the X10 stock solutions were added to the cell plates (90 μl per well) using a multichannel pipette. […] 10 μl of vehicle control (PBS) was added to the control wells (columns 11 and 12). Plates were incubated at 37° C., 5% CO2 for 96 hours. Promega Cell Titre Glo reagent was used as per the manufacturer's instructions to assess cell viability. […] Plates were allowed to sit for a further 10 minutes at room temperature prior to measuring luminescence read-out using a Clariostar plate-reader (BMG). Data was analysed by calculating the average for untreated (vehicle only) control wells and determining the % of control for each treated well. % of control data was then plotted against Log [Treatment] concentration and the IC50 value derived using non-linear regression fitting in GraphPad Prism software. […]

CHO-ALPL cells = experiment: In vitro cell viability (Cell Titre Glo, 96 h), CHO-ALPL; type: cell-based; details: cell-killing
Method: (§2) CHO-ALPP isoform stable transfectants were generated using CHO-K1 cells (CCL-61) provided by the American Type Culture Collection (ATCC). Grown in ATCC-formulated F-12K medium+10% FCS.
as §1, with “hours.” for “hours. Promega Cell Titre Glo reagent was used as per the manufacturer's instructions to assess cell viability.”

NCI-H1651 cells = experiment: In vitro cell viability (Cell Titre Glo, 96 h), NCI-H1651; type: cell-based; details: Table 24
Method: NCI-H1651 cells, CRL-5884 provided by the American Type Culture Collection (ATCC). Grown in ATCC DMEM:F12 medium+10% FCS plus supplements required to make ACL-4 media as recommended by ATCC.
(§3) In vitro cell viability assays for cancer cells treated with anti ALPP/ALPPL2 drug conjugates Cells were seeded in the appropriate complete growth media, as described above, into white, clear bottom 96 well plates (Costar) and incubated at 37° C., 5% C02 for 24 hours. On the following day, dilution series were set up for each test agent at ×10 working stocks. The dose response X10 stock was e.g.: 10000, 5000, 1000, 500, 100, 50, 10, 5, 1, 0.5 nM etc. […] Plates were allowed to sit for a further 10 minutes at room temperature prior to measuring luminescence read-out using a Clariostar plate-reader (BMG). Data was analysed by calculating the average for untreated (vehicle only) control wells and determining the % of control for each treated well. % of control data was then plotted against Log [Treatment] concentration and the IC50 value derived using non-linear regression fitting in GraphPad Prism software. […]
(§4) Cell Titre Glo assays were performed as described in Example 5. Cells were incubated with VHH-hFc-drug conjugates and h12F3 drug conjugates at 37° C., 5% CO2 for 96 hours and the % of cell viability determined as a function of dose response. […]

CHO-ALPP cells = experiment: In vitro cell viability (Cell Titre Glo, 96 h), CHO-ALPP; type: cell-based; details: cell-killing
Method: as §2, §3, §4

CHO-ALPI cells = experiment: In vitro cell viability (Cell Titre Glo, 96 h), CHO-ALPI; type: cell-based; details: cell-killing
Method: as §2
as §1, with “hours.” for “hours. Promega Cell Titre Glo reagent was used as per the manufacturer's instructions to assess cell viability.”

MKN1 cells = experiment: In vitro cell viability (Cell Titre Glo, 96 h), MKN1; type: cell-based; details: Table 24
Method: MKN1 cells (RCB1003, Riken BRC). Ref: Cancer Sci 2006; 97:387-394, were provided by the RIKEN BRC through the National BioResource Project of the MEXT, Japan Grown in RPMI1640+10% FCS.
as §3
(§5) Cell Titre Glo assays were performed as described in Example 5. Cells were incubated with biparatopic VHH-hFc-drug conjugates and h12F3 drug conjugate at 37° C., 5% CO2 for 96 hours and the % of cell viability determined as a function of dose response. […]

CHO-ALPPL2 cells = experiment: In vitro cell viability (Cell Titre Glo, 96 h), CHO-ALPPL2; type: cell-based; details: cell-killing
Method: as §2, §3, §4

NCI-N87 cells = experiment: In vitro cell viability (Cell Titre Glo, 96 h), NCI-N87; type: cell-based, human; details: Table 24
Method: NCI-N87 cells, CRL-5822 provided by the American Type Culture Collection (ATCC). Grown in RPM11640+10% FCS.
as §3, with “etc. 10 μL of the X10 stock solutions were added to the cell plates (90 μl per well) using a multichannel pipette.” for “etc.”
as §5

CC[C@H](C)[C@@H]([C@@H](CC(=O)N1CCC[C@H]1[C@H](OC)[C@@H](C)C(=O)N[C@H](C)[C@@H](O)c1ccccc1)OC)N(C)C(=O)[C@@H](NC(=O)[C@@H](NC)C(C)C)C(C)C [MMAE, monomethylauristatin E] (H-[NMeV]V[Dil][Dolaproine]-X1)
% viability remaining, HeLa (HeLa cells): 5.1% | IC50 (HeLa cells; cell-killing): 1.8 nM | IC50 (CHO-ALPL cells; Table 18, read-out: IC50 @ 96 h, CHO-ALPL): 29.4 nM and 25.8 nM | IC50 (CHO-ALPL cells; Table 23, read-out: IC50 at 96 h, CHO-ALPL): 29.4 nM and 25.8 nM | % viability remaining, NCI-H1651 (NCI-H1651 cells): 28.1% | IC50 (NCI-H1651 cells; cell-killing): 0.8 nM | IC50 (CHO-ALPP cells; Table 18, read-out: IC50 @ 96 h, CHO-ALPP): 19.1 nM and 19.5 nM | IC50 (CHO-ALPP cells; Table 23, read-out: IC50 at 96 h, CHO-ALPP): 19.1 nM and 19.5 nM | IC50 (CHO-ALPI cells; Table 18, read-out: IC50 @ 96 h, CHO-ALPI): 11.4 nM and 15.9 nM | IC50 (CHO-ALPI cells; Table 23, read-out: IC50 at 96 h, CHO-ALPI): 11.4 nM and 15.9 nM | % viability remaining, MKN1 (MKN1 cells): 23.1% | IC50 (MKN1 cells; cell-killing): 1.4 nM | IC50 (CHO-ALPPL2 cells; Table 18, read-out: IC50 @ 96 h, CHO-ALPPL2): 24.4 nM and 16.6 nM | IC50 (CHO-ALPPL2 cells; Table 23, read-out: IC50 at 96 h, CHO-ALPPL2): 24.4 nM and 15.6 nM | % viability remaining, NCI-N87 (NCI-N87 cells): 27.9% | IC50 (NCI-N87 cells; cell-killing): 0.3 nM

— patent US20260216242A1, “ALPP-SPECIFIC VARIANT ANTIGEN BINDING MOLECULES” (ALMAC DISCOVERY LIMITED, priority 2022, published 2026)
